One data set deals with kinases. Briefly: KINOMEscan multi-kinase profiling. Particulars: 10 μM. It is filed as binding. The method, then:
The multi-kinase inhibition profile of SU056 was determined via the KINOMEScan screening platform (Eurofins discovery). The screening was performed at 10 μM of SU056. The kinase dendrogram was developed using the TREEspot interaction maps online application (Eurofins Discovery). The results are expressed as residual activity (% Control).

In data set [1] the test system is pharmacology panel (receptors, channels, transporters, enzymes). Nature of the data set: In vitro radioligand binding and enzyme and uptake assay panel. Particulars: 10 μM. The method, then: The compound SU056 was tested for its radioligand binding and enzyme and uptake characteristics by Eurofins lab services (Eurofins discovery). The screening was performed at 10 μM of SU056. The binding was calculated as % inhibition of the binding of a radioactively labeled ligand specific to each target. The SU056 enzyme inhibition effect was determined as % inhibition of control enzyme activity.

Each structure is given as a SMILES string.

Regarding `O=C1OCC2=C1C(c1cccc(F)c1)c1cc3c(cc1N2CCO)OCO3` (centres unmarked) [SU056, 9-(3-fluorophenyl)-5-(2-hydroxyethyl)-6,9-dihydro-[1,3]dioxolo[4,5-g]furo[3,4-b]quinolin-8(5H)-one], the kinase activity inhibition entry on kinases is “does not inhibit”. Also, the “effect on major pharmacological parameters (binding and enzyme assays)” value in data set [1] is on record as “does not affect”.

For the origin of these results see paper PMC11148772, “Inhibition of protein translational machinery in triple-negative breast cancer as a promising therapeutic strategy” (Cell Reports Medicine, 2024).
